{
  "source": "patent US20260130933A1",
  "about": "“PHARMACEUTICAL COMPOSITION FOR PREVENTION OR TREATMENT OF NEPHROPATHY AND/OR DIABETES MELLITUS, COMPRISING ENAVOGLIFLOZIN” (DAEWOONG PHARMACEUTICAL CO., LTD., priority 2022, published 2026)",
  "experiment": "Example 5: renal function-related safety, changes in eGFR in the phase 3 trials of Examples 1 to 3",
  "type": "in vivo, human",
  "parameters": "eGFR, change from baseline: unit not given here",
  "conditions": "for eGFR: in mL/min/1.73m2 (unit assumed)",
  "description": "In phase 3 clinical trials of Examples 1 to 3, the changes in eGFR as an indicator of renal function-related safety were confirmed.",
  "key": {"[1]": {"conditions": "Week 6, Example 2 (combination therapy with metformin)"}, "[2]": {"conditions": "Week 6, Example 3 (combination therapy with metformin/gemigliptin)"}, "[3]": {"conditions": "Week 12, Example 2 (combination therapy with metformin)"}, "[4]": {"conditions": "Week 12, Example 3 (combination therapy with metformin/gemigliptin)"}, "[5]": {"conditions": "Week 18, Example 2 (combination therapy with metformin)"}, "[6]": {"conditions": "Week 18, Example 3 (combination therapy with metformin/gemigliptin)"}, "[7]": {"conditions": "Week 24, Example 2 (combination therapy with metformin)"}, "[8]": {"conditions": "Week 24, Example 3 (combination therapy with metformin/gemigliptin)"}, "[9]": {"conditions": "week 6, Example 2 (combination therapy with metformin)"}, "[10]": {"conditions": "week 6, Example 3 (combination therapy with metformin/gemigliptin)"}, "[11]": {"conditions": "week 12, Example 2 (combination therapy with metformin)"}, "[12]": {"conditions": "week 12, Example 3 (combination therapy with metformin/gemigliptin)"}, "[13]": {"conditions": "week 18, Example 2 (combination therapy with metformin)"}, "[14]": {"conditions": "week 18, Example 3 (combination therapy with metformin/gemigliptin)"}, "[15]": {"conditions": "week 24, Example 2 (combination therapy with metformin)"}, "[16]": {"conditions": "week 24, Example 3 (combination therapy with metformin/gemigliptin)"}},
  "data": [
    {"compound": "CCOc1ccc(Cc2cc([C@@H]3O[C@H](CO)[C@@H](O)[C@H](O)[C@H]3O)ccc2Cl)cc1", "note": "[Dapagliflozin, reference compound]", "values": [
      {"measurement": "eGFR", "setting": "[1]", "result": 92.123},
      {"measurement": "eGFR", "setting": "[2]", "result": 90.5384},
      {"measurement": "eGFR", "setting": "[3]", "result": 92.274},
      {"measurement": "eGFR", "setting": "[4]", "result": 89.8198},
      {"measurement": "eGFR", "setting": "[5]", "result": 94.828},
      {"measurement": "eGFR", "setting": "[6]", "result": 90.9546},
      {"measurement": "eGFR", "setting": "[7]", "result": 93.739},
      {"measurement": "eGFR", "setting": "[8]", "result": 91.6344},
      {"measurement": "eGFR, change from baseline", "setting": "[9]", "result": "−1.908"},
      {"measurement": "eGFR, change from baseline", "setting": "[10]", "result": "−1.1439"},
      {"measurement": "eGFR, change from baseline", "setting": "[11]", "result": "−1.559"},
      {"measurement": "eGFR, change from baseline", "setting": "[12]", "result": "−1.7177"},
      {"measurement": "eGFR, change from baseline", "setting": "[13]", "result": 0.897},
      {"measurement": "eGFR, change from baseline", "setting": "[14]", "result": 0.0571},
      {"measurement": "eGFR, change from baseline", "setting": "[15]", "result": "−0.193"},
      {"measurement": "eGFR, change from baseline", "setting": "[16]", "result": 0.5790}
    ]},
    {"compound": "OC[C@H]1O[C@@H](c2cc(Cc3ccc(C4CC4)cc3)c(Cl)c3c2CCO3)[C@H](O)[C@@H](O)[C@@H]1O", "note": "[Enavogliflozin, (2S,3R,4R,5S,6R)-2-(7-chloro-6 (4-cyclopropylbenzyl)-2,3-dihydrobenzofuran-4-yl)-6-(hydroxymethyl)tetrahydro-2H-pyran-3,4,5-triol]", "values": [
      {"measurement": "eGFR", "setting": "Week 6, Example 1 (monotherapy)", "result": 88.464},
      {"measurement": "eGFR", "setting": "[1]", "result": 88.574},
      {"measurement": "eGFR", "setting": "[2]", "result": 89.3847},
      {"measurement": "eGFR", "setting": "Week 12, Example 1 (monotherapy)", "result": 90.142},
      {"measurement": "eGFR", "setting": "[3]", "result": 90.566},
      {"measurement": "eGFR", "setting": "[4]", "result": 92.0995},
      {"measurement": "eGFR", "setting": "Week 18, Example 1 (monotherapy)", "result": 91.088},
      {"measurement": "eGFR", "setting": "[5]", "result": 88.185},
      {"measurement": "eGFR", "setting": "[6]", "result": 89.9269},
      {"measurement": "eGFR", "setting": "Week 24, Example 1 (monotherapy)", "result": 91.387},
      {"measurement": "eGFR", "setting": "[7]", "result": 88.056},
      {"measurement": "eGFR", "setting": "[8]", "result": 91.9246},
      {"measurement": "Change in eGFR (renal function-related safety)", "setting": "phase 3 trials of Examples 1 to 3", "result": "no significant change in eGFR"},
      {"measurement": "eGFR, change from baseline", "setting": "week 6, Example 1 (monotherapy)", "result": "−0.845"},
      {"measurement": "eGFR, change from baseline", "setting": "[9]", "result": 0.425},
      {"measurement": "eGFR, change from baseline", "setting": "[10]", "result": 1.9291},
      {"measurement": "eGFR, change from baseline", "setting": "week 12, Example 1 (monotherapy)", "result": 1.208},
      {"measurement": "eGFR, change from baseline", "setting": "[11]", "result": 2.488},
      {"measurement": "eGFR, change from baseline", "setting": "[12]", "result": 0.9308},
      {"measurement": "eGFR, change from baseline", "setting": "week 18, Example 1 (monotherapy)", "result": 2.072},
      {"measurement": "eGFR, change from baseline", "setting": "[13]", "result": 0.105},
      {"measurement": "eGFR, change from baseline", "setting": "[14]", "result": "−1.3048"},
      {"measurement": "eGFR, change from baseline", "setting": "week 24, Example 1 (monotherapy)", "result": 2.371},
      {"measurement": "eGFR, change from baseline", "setting": "[15]", "result": "−0.024"},
      {"measurement": "eGFR, change from baseline", "setting": "[16]", "result": 0.7726}
    ]}
  ]
}
